Data taken from PubChem BioAssay (NCI).
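Dose response: 5 concentrations. Exposure: 48 h. Format: 96-well plates. Endpoint: linear interpolation; highest concentration if not reached. The concentration for full growth arrest is given as TGI.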

Experiments:
Test in all cases: NCI-60 cell line screen, 48 h
786-0 renal = test system: 786-0 renal
A549 NSCLC = test system: A549 NSCLC
ACHN renal = test system: ACHN renal
CAKI-1 renal = test system: CAKI-1 renal
CCRF-CEM leukemia = test system: CCRF-CEM leukemia
COLO 205 colon = test system: COLO 205 colon
DLD-1 colon = test system: DLD-1 colon
DMS 114 small cell lung = test system: DMS 114 small cell lung
DMS 273 small cell lung = test system: DMS 273 small cell lung
EKVX NSCLC = test system: EKVX NSCLC
HCC-2998 colon = test system: HCC-2998 colon
HCT-116 colon = test system: HCT-116 colon
HCT-15 colon = test system: HCT-15 colon
HL-60(TB) leukemia = test system: HL-60(TB) leukemia
HOP-18 NSCLC = test system: HOP-18 NSCLC
HOP-62 NSCLC = test system: HOP-62 NSCLC
HT29 colon = test system: HT29 colon
IGROV1 ovarian = test system: IGROV1 ovarian
K-562 leukemia = test system: K-562 leukemia
KM12 colon = test system: KM12 colon
KM20L2 colon = test system: KM20L2 colon
LOX IMVI melanoma = test system: LOX IMVI melanoma
LXFL 529 NSCLC = test system: LXFL 529 NSCLC
M14 melanoma = test system: M14 melanoma
M19-MEL melanoma = test system: M19-MEL melanoma
MALME-3M melanoma = test system: MALME-3M melanoma
MOLT-4 leukemia = test system: MOLT-4 leukemia
NCI-H226 lung = test system: NCI-H226 lung
NCI-H23 lung = test system: NCI-H23 lung
NCI-H460 lung = test system: NCI-H460 lung
NCI-H522 lung = test system: NCI-H522 lung
OVCAR-3 ovarian = test system: OVCAR-3 ovarian
OVCAR-4 ovarian = test system: OVCAR-4 ovarian
OVCAR-5 ovarian = test system: OVCAR-5 ovarian
OVCAR-8 ovarian = test system: OVCAR-8 ovarian
RPMI-8226 leukemia = test system: RPMI-8226 leukemia
RXF 393 renal = test system: RXF 393 renal
SF-268 CNS = test system: SF-268 CNS
SF-295 CNS = test system: SF-295 CNS
SF-539 CNS = test system: SF-539 CNS
SK-MEL-2 melanoma = test system: SK-MEL-2 melanoma
SK-MEL-28 melanoma = test system: SK-MEL-28 melanoma
SK-MEL-5 melanoma = test system: SK-MEL-5 melanoma
SK-OV-3 ovarian = test system: SK-OV-3 ovarian
SN12C renal = test system: SN12C renal
SNB-19 CNS = test system: SNB-19 CNS
SNB-75 CNS = test system: SNB-75 CNS
SNB-78 CNS = test system: SNB-78 CNS
SR leukemia = test system: SR leukemia
SW-620 colon = test system: SW-620 colon
TK-10 renal = test system: TK-10 renal
U251 CNS = test system: U251 CNS
UACC-257 melanoma = test system: UACC-257 melanoma
UACC-62 melanoma = test system: UACC-62 melanoma
UO-31 renal = test system: UO-31 renal
XF 498 CNS = test system: XF 498 CNS
A498 renal = test system: A498 renal
HOP-92 NSCLC = test system: HOP-92 NSCLC

SMILES: C[Si](C)(c1ccccc1)C1CC(=O)CC(=O)C1
- TGI (786-0 renal): 49.9 µM
- TGI (A549 NSCLC): > 100 µM
- TGI (ACHN renal): > 100 µM
- TGI (CAKI-1 renal): > 100 µM
- TGI (CCRF-CEM leukemia): > 100 µM
- TGI (COLO 205 colon): > 100 µM
- TGI (DLD-1 colon): > 100 µM
- TGI (DMS 114 small cell lung): > 100 µM
- TGI (DMS 273 small cell lung): > 100 µM
- TGI (EKVX NSCLC): > 100 µM
- TGI (HCC-2998 colon): > 100 µM
- TGI (HCT-116 colon): > 100 µM
- TGI (HCT-15 colon): > 100 µM
- TGI (HL-60(TB) leukemia): 43.3 µM
- TGI (HOP-18 NSCLC): > 100 µM
- TGI (HOP-62 NSCLC): > 100 µM
- TGI (HT29 colon): > 100 µM
- TGI (IGROV1 ovarian): 48.3 µM
- TGI (K-562 leukemia): > 100 µM
- TGI (KM12 colon): > 100 µM
- TGI (KM20L2 colon): > 100 µM
- TGI (LOX IMVI melanoma): 42.5 µM
- TGI (LXFL 529 NSCLC): > 100 µM
- TGI (M14 melanoma): > 100 µM
- TGI (M19-MEL melanoma): > 100 µM
- TGI (MALME-3M melanoma): > 100 µM
- TGI (MOLT-4 leukemia): > 100 µM
- TGI (NCI-H226 lung): > 100 µM
- TGI (NCI-H23 lung): > 100 µM
- TGI (NCI-H460 lung): > 100 µM
- TGI (NCI-H522 lung): 60.8 µM
- TGI (OVCAR-3 ovarian): > 100 µM
- TGI (OVCAR-4 ovarian): > 100 µM
- TGI (OVCAR-5 ovarian): > 100 µM
- TGI (OVCAR-8 ovarian): > 100 µM
- TGI (RPMI-8226 leukemia): > 100 µM
- TGI (RXF 393 renal): > 100 µM
- TGI (SF-268 CNS): > 100 µM
- TGI (SF-295 CNS): > 100 µM
- TGI (SF-539 CNS): 34.4 µM
- TGI (SK-MEL-2 melanoma): > 100 µM
- TGI (SK-MEL-28 melanoma): > 100 µM
- TGI (SK-MEL-5 melanoma): > 100 µM
- TGI (SK-OV-3 ovarian): > 100 µM
- TGI (SN12C renal): > 100 µM
- TGI (SNB-19 CNS): > 100 µM
- TGI (SNB-75 CNS): > 100 µM
- TGI (SNB-78 CNS): > 100 µM
- TGI (SR leukemia): > 100 µM
- TGI (SW-620 colon): > 100 µM
- TGI (TK-10 renal): > 100 µM
- TGI (U251 CNS): > 100 µM
- TGI (UACC-257 melanoma): > 100 µM
- TGI (UACC-62 melanoma): > 100 µM
- TGI (UO-31 renal): 37.6 µM
- TGI (XF 498 CNS): > 100 µM

SMILES: Cc1cc(O)c(C=O)c(C)c1CCC1(C)C=Cc2cc(O)ccc2O1 (configuration not stated)
- TGI (786-0 renal): > 100 µM
- TGI (A498 renal): > 100 µM
- TGI (A549 NSCLC): > 100 µM
- TGI (ACHN renal): 38.6 µM
- TGI (CAKI-1 renal): 37.1 µM
- TGI (CCRF-CEM leukemia): 48.8 µM
- TGI (COLO 205 colon): 30.4 µM
- TGI (DLD-1 colon): 38 µM
- TGI (DMS 114 small cell lung): 44.7 µM
- TGI (DMS 273 small cell lung): 46.4 µM
- TGI (EKVX NSCLC): 94.4 µM
- TGI (HCC-2998 colon): 79.2 µM
- TGI (HCT-116 colon): 30.9 µM
- TGI (HCT-15 colon): 55.1 µM
- TGI (HL-60(TB) leukemia): 60.3 µM
- TGI (HOP-18 NSCLC): 60.5 µM
- TGI (HOP-62 NSCLC): 43.2 µM
- TGI (HOP-92 NSCLC): 57.9 µM
- TGI (HT29 colon): 82.2 µM
- TGI (IGROV1 ovarian): > 100 µM
- TGI (K-562 leukemia): 67.9 µM
- TGI (KM12 colon): > 100 µM
- TGI (KM20L2 colon): 57.4 µM
- TGI (LOX IMVI melanoma): 40.3 µM
- TGI (LXFL 529 NSCLC): 29.8 µM
- TGI (M14 melanoma): 35 µM
- TGI (M19-MEL melanoma): > 100 µM
- TGI (MALME-3M melanoma): 71.4 µM
- TGI (MOLT-4 leukemia): 50.5 µM
- TGI (NCI-H226 lung): > 100 µM
- TGI (NCI-H23 lung): 43.9 µM
- TGI (NCI-H460 lung): 52.5 µM
- TGI (NCI-H522 lung): 28.2 µM
- TGI (OVCAR-3 ovarian): 56.3 µM
- TGI (OVCAR-4 ovarian): 67 µM
- TGI (OVCAR-5 ovarian): 79.1 µM
- TGI (OVCAR-8 ovarian): 31.4 µM
- TGI (RPMI-8226 leukemia): 56.1 µM
- TGI (SF-268 CNS): > 100 µM
- TGI (SF-295 CNS): 67.6 µM
- TGI (SF-539 CNS): 38.9 µM
- TGI (SK-MEL-2 melanoma): 53.9 µM
- TGI (SK-MEL-28 melanoma): 54 µM
- TGI (SK-MEL-5 melanoma): 71.2 µM
- TGI (SK-OV-3 ovarian): 85.6 µM
- TGI (SN12C renal): > 100 µM
- TGI (SNB-19 CNS): > 100 µM
- TGI (SNB-75 CNS): 94.1 µM
- TGI (SNB-78 CNS): 86.4 µM
- TGI (SR leukemia): > 100 µM
- TGI (SW-620 colon): 45 µM
- TGI (TK-10 renal): > 100 µM
- TGI (U251 CNS): 48.8 µM
- TGI (UACC-257 melanoma): 53.7 µM
- TGI (UACC-62 melanoma): 43 µM
- TGI (XF 498 CNS): 52.7 µM
